Test: Relative potency was determined in vitro by measuring the accumulation of cyclic AMP in SV-49 mouse lymphoma cells relative to dl-isoproterenol
Assay type: functional

Row | Structure (SMILES) | Relative potency
1 | CC(CCCO)NCC(O)c1ccc(O)c(O)c1.O=P(O)(O)O (centres undefined) | 1.3
2 | Cc1ccc(NC(=O)OCCCC(C)NCC(O)c2ccc(O)c(O)c2)cc1.O=P(O)(O)O (centres undefined) | 0.092
3 | Cc1ccc(C(=O)OCCCC(C)NCC(O)c2ccc(O)c(O)c2)cc1.O=P(O)(O)O (centres undefined) | 0.0063
4 | Cc1ccc(C(=O)NC(=O)OCCCC(C)NCC(O)c2ccc(O)c(O)c2)cc1.Cl (centres undefined) | 73
5 | CCCCNC(=O)OCCCC(C)NCC(O)c1ccc(O)c(O)c1.O=P(O)(O)O (centres undefined) | 190
6 | O=P(O)(O)O.OCCCNCC(O)c1ccc(O)c(O)c1 (centres undefined) | 0.0058
7 | Cc1ccc(NC(=O)OCCCCC(C)NCC(O)c2ccc(O)c(O)c2)cc1.O=P(O)(O)O (centres undefined) | 1.3
8 | CC(CCO)NCC(O)c1ccc(O)c(O)c1.O=P(O)(O)O (centres undefined) | 0.012
9 | CC(CCCOC(=O)NC1CCCCC1)NCC(O)c1ccc(O)c(O)c1.Cl (centres undefined) | 29

Reference: ChEMBL document CHEMBL1123073, “Conjugates of catecholamines. 6. Synthesis and beta-adrenergic activity of N-(hydroxyalkyl)catecholamine derivatives” (1985)
